# Patent publication US8633251B2, “Derivatives of aminoalkanols, method of obtaining of aminoalkanols and their use” (Uniwersytet Jagiellonski, priority 2008, dated 2014)
# Where a name gives a salt, the structure may show the parent alone. Read-outs that look alike come from different tables or passages of the source.
# Key:
# [1] = test system: maximal electroshock seizures; experiment: Maximum Electroshock Seizure (MES) test, mice; format: in vivo; conditions: mice; for responders at 100 mg/kg: read-out: MES, No. of protected animals/No. of used animals (converted)
# Method in brief: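 Mice received compound in methylcellulose i.p. or p.o. at 30, 100 and 300 mg/kg, with some tests at 10 and 3 mg/kg. At 0.5 or 4 h, after tetracaine eye-drops, current was delivered through corneal electrodes (60 Hz, 0.2 s, 50 mA). Groups were one mouse at 30 and 300 mg/kg and three at 100 mg/kg.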
# [2] = test system: pentylenetetrazol-induced seizures; experiment: Subcutaneous Metrazol Test (ScMet), mice; format: in vivo
# Experimental: In order to define anticonvulsant activity, screening tests were performed, using animal models of seizures. […] The tests were based on administration of a compound to an animal and after certain time inducing state similar to epilepsy attack in human. Each substance (after dissolving in methylcellulose) was normally tested in doses 30, 100, and 300 mg/kg body weight (b.w.) (mice) or in 30 and 50 mg/kg b.w. (rats) in two possible routes of administration: intraperitoneal (i.p.) or oral (p.o.). Appropriate tests were performed 0.5 and 4 h after administration of the compound. […] (mice) the tests were also performed in doses 10 and 3 mg/kg b.w.
# Subcutaneous Metrazol Test (ScMet) is a chemical test, where compounds are tested for activity in absence seizures (petit mal epilepsy). Pentetrazol (metrazol) is considered to block chloride channel in the GABAA receptor complex, therefore at a certain dose in animals it causes myoclonic jerks, next—clonic seizures, and then tonic seizures. The procedure consists in administration of a tested compound and after 0.5 or 4 h subcutaneous administration of pentylenetetrazol in the dose of 85 mg/kg b.w. (mice) or 70 mg/kg b.w. (rats) in a 0.85% solution in 0.9% NaCl. […] Normally the test is performed in single animals.
# neurotoxicity (rotarod) = experiment: Neurotoxicity test (TOX), rotarod, mice; format: in vivo
# [3] = mice, dose 100 mg/kg b.w., time 0.5 h
# [4] = mice, dose 100 mg/kg b.w., time 4 h
# [5] = mice, dose 300 mg/kg b.w., time 0.5 h
# [6] = Mus musculus, dose 30 mg/kg b.w., time 0.5 h, read-out: MES, No. of protected animals/No. of used animals
# [7] = Mus musculus, dose 100 mg/kg b.w., 0.5 h
# [8] = mice, dose 100 mg/kg b.w., 0.5 h
# [9] = mice, dose 300 mg/kg b.w., 0.5 h
# [10] = dose 100 mg/kg b.w., time 0.5 h
compound,measurement,setting,value
"Cc1cccc(C)c1OCCNC(C)(C)CCO (as salt: hydrochloride) [Compound 15, 3N-[(2,6-dimethylphenoxy)ethyl]amino-3-methyl-1-butanol hydrochloride]",melting point,,170 to 172 °C
"Cc1cccc(C)c1OCCN[C@H](CO)C(C)C (as salt: hydrochloride) [Compound 16, L-2N-[(2,6-dimethylphenoxy)ethyl]amino-3-methyl-1-butanol hydrochloride]",melting point,,162 to 164 °C
"Cc1cccc(C)c1OCCNCCCCCO (as salt: hydrochloride) [Compound 17, 5N-[(2,6-dimethylphenoxy)ethyl]amino-1-pentanol hydrochloride]",melting point,,138 to 140 °C
"Cc1cccc(C)c1OCCCN[C@H](C)CO (as salt: hydrochloride) [Compound 52, R-(−)-2N-[(2,6-dimethylphenoxy)propyl]amino-1-propanol hydrochloride]",melting point,,119 to 120 °C
"CCC(O)CNCCCOc1c(C)cccc1C (racemic) [Compound 54, R,S-1N-[(2,6-dimethylphenoxy)propyl]amino-2-butanol]","MES, No. of protected animals/No. of used animals","[1]; dose 100 mg/kg b.w., 0.5 h",2/2
same,"ScMet, No. of protected animals/No. of used animals","[2]; dose 30 mg/kg b.w., 0.5 h",1/5
same,"ScMet, No. of protected animals/No. of used animals","[2]; dose 30 mg/kg b.w., 4 h",1/1
same,"TOX, No. of animals exhibiting motor impairment/no. of used animals","neurotoxicity (rotarod); mouse, in vivo, 30 mg/kg",1/4
same,"TOX, No. of animals exhibiting motor impairment/no. of used animals","neurotoxicity (rotarod); mouse, in vivo, 300 mg/kg",4/4
"CCC(NC(=O)COc1c(C)cccc1C)C(N)=O (racemic) [Compound 66, D,L-2N-[(2,6-dimethylphenoxy)acetyl]aminobutyramide]",melting point,,182 to 184 °C
"Cc1cccc(OCCNCC(O)c2ccccc2)c1C (stereo not shown) [Compound 4, R,S-2N-[(2,3-dimethylphenoxy)ethyl]amino-1-phenylethanol]","ScMet, No. of protected animals/No. of used animals","[2]; dose 30 mg/kg b.w., time 0.5 h",1/5
same,"TOX, No. of animals exhibiting motor impairment/no. of used animals",neurotoxicity (rotarod); [3],4/8
same,"TOX, No. of animals exhibiting motor impairment/no. of used animals",neurotoxicity (rotarod); [4],1/4
same,"TOX, No. of animals exhibiting motor impairment/no. of used animals",neurotoxicity (rotarod); [5],3/4
"Cc1cccc(C)c1OCCNC[C@@H](C)O [Compound 10, R-(−)-1N-[(2,6-dimethylphenoxy)ethyl]amino-2-propanol]",responders at 30 mg/kg,[1]; [6],100%
same,responders at 100 mg/kg,"[1]; Mus musculus, dose 100 mg/kg b.w., time 4 h",100%
same,melting point,,76 to 77 °C
same,"TOX, No. of animals exhibiting motor impairment/no. of used animals","neurotoxicity (rotarod); mice, dose 30 mg/kg b.w., time 0.5 h",1/4
same,"TOX, No. of animals exhibiting motor impairment/no. of used animals",neurotoxicity (rotarod); [3],8/8
same,"TOX, No. of animals exhibiting motor impairment/no. of used animals",neurotoxicity (rotarod); [4],1/3
same,"TOX, No. of animals exhibiting motor impairment/no. of used animals",neurotoxicity (rotarod); [5],4/4
"Cc1cccc(C)c1OCCNC[C@H](O)c1ccccc1 [Compound 20, R-(−)-2N-[(2,6-dimethylphenoxy)ethyl]amino-1-phenylethanol]",responders at 30 mg/kg,[1]; [6],100%
same,melting point,,78 to 80 °C
same,"TOX, No. of animals exhibiting motor impairment/no. of used animals",neurotoxicity (rotarod); [3],8/8
same,"TOX, No. of animals exhibiting motor impairment/no. of used animals",neurotoxicity (rotarod); [5],4/4
"Cc1cccc(OCCCNC(C)(C)CO)c1C [Compound 47, 2N-[(2,3-dimethylphenoxy)propyl]amino-2-methyl-1-propanol]",responders at 100 mg/kg,"[1]; Mus musculus, dose 100 mg/kg b.w., time 0.5 h",100%
same,melting point,,128 to 130 °C
same,"TOX, No. of animals exhibiting motor impairment/no. of used animals",neurotoxicity (rotarod); [3],8/8
same,"TOX, No. of animals exhibiting motor impairment/no. of used animals",neurotoxicity (rotarod); [4],4/4
same,"TOX, No. of animals exhibiting motor impairment/no. of used animals",neurotoxicity (rotarod); [5],4/4
"Cc1cccc(C)c1OCCCNC(C)(C)CO [Compound 53, 2N-[(2,6-dimethylphenoxy)propyl]amino-2-methyl-1-propanol]",responders at 100 mg/kg,[1]; [7],100%
same,melting point,,73 to 75 °C
same,"TOX, No. of animals exhibiting motor impairment/no. of used animals","neurotoxicity (rotarod); mice, dose 30 mg/kg b.w., 0.5 h",1/4
same,"TOX, No. of animals exhibiting motor impairment/no. of used animals",neurotoxicity (rotarod); [8],8/8
same,"TOX, No. of animals exhibiting motor impairment/no. of used animals",neurotoxicity (rotarod); [9],4/4
"Cc1cccc(C)c1OCC(=O)N(C)CCO [Compound 59, R,S-2N-[(2,6-dimethylphenoxy)acetyl]-2N-methylamino-1-ethanol]","MES, No. of protected animals/No. of used animals","[1]; dose 300 mg/kg b.w., 0.5 h",1/1
same,"ScMet, No. of protected animals/No. of used animals","[2]; dose 300 mg/kg b.w., 0.5 h",1/1
"Cc1cccc(C)c1OCC(=O)N[C@H]1CC[C@H](O)CC1 [Compound 64, trans-4N-[(2,6-dimethylphenoxy)acetyl]amino-1-cyclohexanol]",responders at 100 mg/kg,[1]; [7],100%
same,responders at 300 mg/kg,"[1]; Mus musculus, dose 300 mg/kg b.w., 0.5 h, read-out: MES, No. of protected animals/No. of used animals",100%
same,melting point,,161 to 162 °C
same,responders at 300 mg/kg,"[2]; Mus musculus, sc, dose 300 mg/kg b.w., 0.5 h, read-out: ScMet, No. of protected animals/No. of used animals",100%
same,"TOX, No. of animals exhibiting motor impairment/no. of used animals",neurotoxicity (rotarod); [8],7/8
same,"TOX, No. of animals exhibiting motor impairment/no. of used animals",neurotoxicity (rotarod); [9],4/4
"Cc1cccc(Cl)c1OCC(=O)NCC(C)O (stereo not shown) [Compound 68, R,S-1N-[(2-chlor-6-methylphenoxy)acetyl]amino-2-propanol]","MES, No. of protected animals/No. of used animals","[1]; dose 300 mg/kg b.w., 0.5 h",1/1
same,"ED50 (MES, mice, i.p.)","[1]; i.p., time not given",97.93 mg/kg b.w.
same,"ScMet, No. of protected animals/No. of used animals","[2]; dose 300 mg/kg b.w., 0.5 h",1/1
same,"TOX, No. of animals exhibiting motor impairment/no. of used animals",neurotoxicity (rotarod); [9],4/4
"Cc1cccc(Cl)c1OCC(=O)N[C@@H](C)CO [Compound 71, S-(+)-2N-[(2-chlor-6-methylphenoxy)acetyl]amino-1-propanol]","MES, No. of protected animals/No. of used animals","[1]; dose 300 mg/kg b.w., 0.5 h",1/1
same,"TOX, No. of animals exhibiting motor impairment/no. of used animals",neurotoxicity (rotarod); [9],4/4
"CCC(O)CNC(=O)COc1c(C)cccc1Cl (stereo not shown) [Compound 72, R,S-1N-[(2-chlor-6-methylphenoxy)acetyl]amino-2-butanol]","MES, No. of protected animals/No. of used animals","[1]; dose 300 mg/kg b.w., 0.5 h",1/1
same,"ScMet, No. of protected animals/No. of used animals","[2]; dose 300 mg/kg b.w., 0.5 h",1/1
same,"TOX, No. of animals exhibiting motor impairment/no. of used animals",neurotoxicity (rotarod); [9],4/4
"CCC(CO)NC(=O)COc1c(C)cccc1Cl (stereo not shown) [Compound 73, R,S-2N-[(2-chlor-6-methylphenoxy)acetyl]amino-1-butanol]","MES, No. of protected animals/No. of used animals","[1]; dose 300 mg/kg b.w., 0.5 h",1/1
same,"MES, No. of protected animals/No. of used animals","[1]; dose 300 mg/kg b.w., 4 h",1/1
same,"ScMet, No. of protected animals/No. of used animals","[2]; dose 100 mg/kg b.w., 0.5 h",3/5
same,"ScMet, No. of protected animals/No. of used animals","[2]; dose 300 mg/kg b.w., 0.5 h",1/1
same,"TOX, No. of animals exhibiting motor impairment/no. of used animals",neurotoxicity (rotarod); [9],4/4
"Cc1cc(Cl)ccc1OCC(=O)NCC(C)O (stereo not shown) [Compound 80, R,S-1N-[(4-chlor-2-methylphenoxy)acetyl]amino-2-propanol]","MES, No. of protected animals/No. of used animals","[1]; dose 300 mg/kg b.w., 0.5 h",1/1
same,"ScMet, No. of protected animals/No. of used animals","[2]; dose 300 mg/kg b.w., 0.5 h",1/1
same,"TOX, No. of animals exhibiting motor impairment/no. of used animals",neurotoxicity (rotarod); [9],4/4
"CCC(O)CNC(=O)COc1ccc(Cl)cc1C (stereo not shown) [Compound 81, R,S-1N-[(4-chlor-2-methylphenoxy)acetyl]amino-2-butanol]","MES, No. of protected animals/No. of used animals","[1]; dose 300 mg/kg b.w., 0.5 h",1/1
same,"ScMet, No. of protected animals/No. of used animals","[2]; dose 300 mg/kg b.w., 0.5 h",1/1
same,"TOX, No. of animals exhibiting motor impairment/no. of used animals",neurotoxicity (rotarod); [9],4/4
"R,S-1N-[(2-chlor-6-methylphenoxy)ethyl]amino-2-propanol [Compound 23]","MES, No. of protected animals/No. of used animals","[1]; dose 30 mg/kg b.w., time 0.5 h",1/1
same,"MES, No. of protected animals/No. of used animals",[1]; [10],1/1
same,"TOX, No. of animals exhibiting motor impairment/no. of used animals",neurotoxicity (rotarod); [3],7/8
same,"TOX, No. of animals exhibiting motor impairment/no. of used animals",neurotoxicity (rotarod); [5],4/4
"R,S-1N-[(4-chlor-2-methylphenoxy)ethyl]amino-2-propanol [Compound 32]","MES, No. of protected animals/No. of used animals","[1]; dose 30 mg/kg b.w., time 0.5 h",1/1
same,"MES, No. of protected animals/No. of used animals",[1]; [10],3/3
same,"MES, No. of protected animals/No. of used animals","[1]; dose 100 mg/kg b.w., time 4 h",1/3
same,"MES, No. of protected animals/No. of used animals","[1]; dose 300 mg/kg b.w., time 0.5 h",1/1
same,"TOX, No. of animals exhibiting motor impairment/no. of used animals",neurotoxicity (rotarod); [3],7/8
same,"TOX, No. of animals exhibiting motor impairment/no. of used animals",neurotoxicity (rotarod); [5],4/4
same,"TOX, No. of animals exhibiting motor impairment/no. of used animals","neurotoxicity (rotarod); mice, dose 300 mg/kg b.w., time 4 h",1/1
"R,S-2N-[(2,3-dimethylphenoxy)ethyl]amino-1-propanol [Compound 1]","MES, No. of protected animals/No. of used animals",[1]; [10],3/3
same,"TOX, No. of animals exhibiting motor impairment/no. of used animals","neurotoxicity (rotarod); mouse, in vivo, 100 mg/kg",7/8
same,"TOX, No. of animals exhibiting motor impairment/no. of used animals","neurotoxicity (rotarod); mouse, in vivo, 300 mg/kg",4/4
"R,S-2N-[(4-chlor-2-methylphenoxy)ethyl]amino-1-propanol [Compound 33]","MES, No. of protected animals/No. of used animals",[1]; [10],3/3
same,"TOX, No. of animals exhibiting motor impairment/no. of used animals",neurotoxicity (rotarod); [3],4/8
same,"TOX, No. of animals exhibiting motor impairment/no. of used animals",neurotoxicity (rotarod); [5],4/4
"R-(+)-2N-[(2,6-dimethylphenoxy)acetyl]amino-1-propanol [Compound 61]","MES, No. of protected animals/No. of used animals","[1]; dose 300 mg/kg b.w., 0.5 h",1/1
same,"TOX, No. of animals exhibiting motor impairment/no. of used animals",neurotoxicity (rotarod); [9],2/4
